≈ marks a conversion by molar mass, not a printed value. Like-named read-outs stand apart in the source and are kept apart here.

The test system of test [1] is Enterococcus faecalis KTCT 5191. The test is described as follows: MIC by broth microdilution. The settings on record: for MIC: Enterococcus faecalis, KCTC5191, 20 h.
Description: (§1) A test microorganism was cultured in Mueller Hinton broth (MHB) and the antimicrobial activity was measured by the broth microdilution method. […] The compound was diluted in dimethylsulfoxide (DMSO) and the experiment was performed by adjusting the DMSO concentration to a 1/100 level. After culturing for 20 hours, the OD value was measured at 650 nm and the growth of the microorganism was examined.
Test [2] has as its system Pseudomonas aeruginosa KTCT 2004. As to the kind of experiment: MIC by broth microdilution. The following applies: KCTC2004, 20 h.
Description: as §1
For test [3], the system named is Streptococcus pneumoniae KTCT 5412. The test is described as follows: MIC by broth microdilution. The settings on record: KCTC5412, 20 h. (Dilution methods test growth across graded concentrations, often in twofold steps.)
Description: as §1
For test [4], the system named is E. coli KTCT 1682. The test is described as follows: MIC by broth microdilution. The format is cell-based. The settings on record: Escherichia coli, KCTC1682; E. coli KTCT 1682 (KCTC 1682 in Table 4); MHB, 20 hours.
The test system of test [5] is MRSA CCARM 3167. As to the kind of experiment: MIC by broth microdilution. The settings on record: for MIC: Staphylococcus aureus, MRSA CCARM 3167, MHB, 20 hours. The format is cell-based, methicillin-resistant Staphylococcus aureus.
Test [6] relates to E. coli CCARM 1356. The test is described as follows: MIC by broth microdilution. The format is cell-based, Escherichia coli. The settings on record: for MIC: Escherichia coli, CCARM1356, E. coli CCARM 1356, MHB, 20 hours.
Test [7] relates to Klebsiella pneumoniae KCTC 22057. As to the kind of experiment: MIC by broth microdilution. The format is cell-based. The following applies: KCTC22057, MHB, 20 hours.
The test system of test [8] is Klebsiella aerogenes KTCT 2619. The test is described as follows: MIC by broth microdilution. The format is cell-based. The following applies: KTCT2619, MHB, 20 hours.
Test [9] has as its system Escherichia coli. The test is described as follows: MIC by broth microdilution, summary over E. coli strains. The settings on record: range over E. coli strains of Table 2. The format is cell-based.
Test [10] concerns QRSA CCARM 3519. The test is described as follows: MIC by broth microdilution. The class given is cell-based, quinolone-resistant Staphylococcus aureus. The settings on record: Staphylococcus aureus, CCARM3519, MHB, 20 hours.
Test [11] deals with MRSA CCARM 3506. The test is described as follows: MIC by broth microdilution. The format is cell-based, methicillin-resistant Staphylococcus aureus. The following applies: Staphylococcus aureus, MHB, 20 hours.
The subject of test [12] is S. aureus. The test is described as follows: MIC by broth microdilution, summary over S. aureus strains. The class given is cell-based. The following applies: Staphylococcus aureus; range over S. aureus strains of Table 2.
For test [13], the system named is Staphylococcus aureus 209. As to the kind of experiment: MIC by broth microdilution. The class given is cell-based. The settings on record: MHB, 20 hours.
The test system of test [14] is Pseudomonas aeruginosa KTCT 2742. As to the kind of experiment: MIC by broth microdilution. The class given is cell-based.
Test [15] concerns VRE. As to the kind of experiment: Antimicrobial activity against VRE. The class given is cell-based, vancomycin resistant enterococcus. The following applies: statement in words, refers to Example 5.
The subject of test [16] is Staphylococcus aureus 503. As to the kind of experiment: MIC by broth microdilution. The format is cell-based. The settings on record: MHB, 20 hours.
Test [17] has as its system Bacillus subtilis KCTC 1021. The test is described as follows: MIC by broth microdilution. The class given is cell-based. The settings on record: KCTC1021, MHB, 20 hours.
In test [18] the test system is Staphylococcus epidermidis KTCT 3958. The test is described as follows: MIC by broth microdilution. The format is cell-based.
The subject of test [19] is MRSA (CCARM3167, CCARM3506) and QRSA (CCARM 3505, CCARM 3519). As to the kind of experiment: MIC by broth microdilution, summary over MRSA and QRSA strains. The following applies: Staphylococcus aureus; range over MRSA CCARM3167, CCARM3506 and QRSA CCARM 3505, CCARM 3519; read-out: MICs in MRSA and QRSA. The format is cell-based.
In test [20] the test system is Acinetobacter calcoaceticus KTCT 2357. The test is described as follows: MIC by broth microdilution. The format is cell-based.
In test [21] the test system is Bacillus subtilis KTCT 1661. The test is described as follows: MIC by broth microdilution. The format is cell-based.
Test [22] deals with Enterococcus faecalis KTCT 3511. As to the kind of experiment: MIC by broth microdilution. The format is cell-based.
In test [23] the test system is VISA. The test is described as follows: Antimicrobial activity against VISA. The class given is cell-based, vancomycin intermediate-resistant S. aureus. The settings on record: statement in words, refers to Example 5.
The test system of test [24] is Staphylococcus aureus RN 4220. The test is described as follows: MIC by broth microdilution. The class given is cell-based. The following applies: RN4220, 20 h.
The subject of test [25] is Salmonella typhimurium KTCT 1926. The test is described as follows: MIC by broth microdilution. The format is cell-based. The settings on record: Salmonella enterica, MHB, 20 hours.
Test [26] relates to QRSA CCARM 3505. As to the kind of experiment: MIC by broth microdilution. The class given is cell-based, quinolone-resistant Staphylococcus aureus. The settings on record: Staphylococcus aureus, CCARM3505, MHB, 20 hours.
Test [27] concerns Acinetobacter baumannii KCTC 2508. The test is described as follows: MIC by broth microdilution. The class given is cell-based. The settings on record: KCTC2508, MHB, 20 hours.
Test [28] has as its system Klebsiella aerogenes and Pseudomonas aeruginosa. The test is described as follows: MIC by broth microdilution, summary over Klebsiella and Pseudomonas strains. The settings on record: range over strains of Table 2. The format is cell-based.

Regarding `O=C(O)c1cn(C2CC2)c2cc(N3CCNCC3)c(F)cc2c1=O` [Ciprofloxacin, reference compound], the MIC came out at 0.5 µg/mL (≈ 1.51 µM) in test [1]; 0.06 µg/mL (≈ 0.181 µM) in [2]; 0.5 µg/mL (≈ 1.51 µM) in [3]; 0.003 µg/mL (≈ 0.00905 µM) in [4]; 2 µg/mL (≈ 6.04 µM) in test [5]; 64 µg/mL (≈ 193 µM) in test [6]. The molecule also gave an MIC in test [7] of 0.006 µg/mL (≈ 0.0181 µM).

For `COC(C(N)=O)C(NC(=O)c1ccc(NC(=O)c2ccc([N+](=O)[O-])cc2)cc1)C(=O)Nc1ccc(C(=O)Nc2ccc(C(=O)Nc3ccc(C(=O)O)cc3OC(C)C)c(O)c2OC(C)C)cc1` (stereo not shown) [Coralmycin A], the MIC in test [8] is 8 µg/mL (≈ 8.7 µM); in test [9], 0.5 to 1 µg/mL (≈ 0.544 to 1.09 µM); in test [10], 1 µg/mL (≈ 1.09 µM); in [11], 0.25 µg/mL (≈ 0.272 µM); in [12] it was 0.06 to 1 µg/mL (≈ 0.0652 to 1.09 µM); in test [13], 0.125 µg/mL (≈ 0.136 µM). The MIC in [1] came to 0.125 µg/mL (≈ 0.136 µM); in [14] (KTCT2742, Pseudomonas aeruginosa KTCT 2742, MHB, 20 hours, read-out: MIC), 32 µg/mL (≈ 34.8 µM); in test [2], 8 µg/mL (≈ 8.7 µM); in test [16] it was 1 µg/mL (≈ 1.09 µM); in [17], 0.063 µg/mL (≈ 0.0685 µM); in [3], 2 µg/mL (≈ 2.17 µM). Besides, the MIC in test [18] (KTCT3958, Staphylococcus epidermidis KTCT 3958, MHB, 20 hours, read-out: MIC) was 0.125 µg/mL (≈ 0.136 µM); in test [19] it was 0.1 to 1 µg/mL (≈ 0.109 to 1.09 µM); in test [4], 0.5 µg/mL (≈ 0.544 µM); in test [5], 0.125 µg/mL (≈ 0.136 µM); in [20] (KTCT2357, Acinetobacter calcoaceticus KTCT 2357, MHB, 20 hours, read-out: MIC), 0.25 µg/mL (≈ 0.272 µM); in test [21] (KTCT1661, Bacillus subtilis KTCT 1661, MHB, 20 hours, read-out: MIC), 0.125 µg/mL (≈ 0.136 µM). Also, the MIC is 0.125 µg/mL (≈ 0.136 µM) in test [22] (KTCT3511, Enterococcus faecalis KTCT 3511, MHB, 20 hours, read-out: MIC); 1 µg/mL (≈ 1.09 µM) in [6]; 0.063 µg/mL (≈ 0.0685 µM) in test [24]; 0.063 µg/mL (≈ 0.0685 µM) in test [25]; 1 µg/mL (≈ 1.09 µM) in [26]; 0.25 µg/mL (≈ 0.272 µM) in test [27]. Besides, the MIC in test [7] was 8 µg/mL (≈ 8.7 µM); in [28], 8 to 32 µg/mL (≈ 8.7 to 34.8 µM). Also, in test [15], the “antimicrobial activity against VRE” value is “confirmed”. Moreover, the “antimicrobial activity against VISA” value in [23] is recorded as “confirmed”.

As to `COC(C(N)=O)C(NC(=O)c1ccc(NC(=O)c2ccc([N+](=O)[O-])cc2)cc1)C(=O)Nc1ccc(C(=O)Nc2ccc(C(=O)Nc3ccc(C(=O)O)c(O)c3OC(C)C)c(O)c2OC(C)C)cc1` (stereo not shown) [Coralmycin B], the MIC in [1] was 0.03 µg/mL (≈ 0.0321 µM); in test [2] it was 4 µg/mL (≈ 4.27 µM); in test [3] it was 0.25 µg/mL (≈ 0.267 µM); in test [4] it was 0.125 µg/mL (≈ 0.134 µM); in test [5] it was 0.015 µg/mL (≈ 0.016 µM); in test [6], 0.125 µg/mL (≈ 0.134 µM). Besides, the figures for the MIC in test [24], in test [27] and in test [7] were 0.015 µg/mL (≈ 0.016 µM), 0.125 µg/mL (≈ 0.134 µM) and 2 µg/mL (≈ 2.14 µM), respectively. In addition, the “higher antimicrobial activity compared to ciprofloxacin” value in test [1] (in Enterococcus faecalis) was “at least 16 fold”; in test [5] (in MRSA), “at least 133 fold”; in [6] (in Escherichia coli) it was “at least 426 fold”.

In the case of `Oc1cc(Cl)ccc1Oc1ccc(Cl)cc1Cl` [Triclosan, reference compound], the MIC in test [1] is more than 64 µg/mL; in [14] (Pseudomonas aeruginosa, KTCT2742, 20 h) it was more than 64 µg/mL; in test [2], more than 64 µg/mL; in [3], 64 µg/mL (≈ 221 µM); in test [18] (Staphylococcus epidermidis, KTCT3958, 20 h), 0.25 µg/mL (≈ 0.863 µM); in test [20] (Acinetobacter calcoaceticus, KTCT2357, 20 h), more than 0.5 µg/mL. The MIC in test [21] (Bacillus subtilis, KTCT1661, 20 h) is 2 µg/mL (≈ 6.91 µM); in [22] (Enterococcus faecalis, KTCT3511, 20 h), more than 64 µg/mL.
